Experimental data as given in the NIST ThermoML archive (doi:10.1016/j.tca.2014.04.026).

Assay: molar heat capacity at constant pressure
Settings: 101 kPa, Liquid, Small sample (50 mg) DSC

CCn1cc[n+](C)c1.N#C[C-](C#N)C#N [1-ethyl-3-methyl-1H-imidazolium tricyanomethanide]
Settings | molar heat capacity at constant pressure [J/K/mol]
296.2 K | 357
300.2 K | 360
304.2 K | 362
308.2 K | 364
312.2 K | 366
316.2 K | 367
320.2 K | 369
324.2 K | 370
328.2 K | 372
332.2 K | 374
336.2 K | 377
340.2 K | 379
344.2 K | 382
348.2 K | 384
352.2 K | 387
356.2 K | 390
360.2 K | 393
364.2 K | 396
368.2 K | 399
372.2 K | 403
